Laboratory results reported in US20080242661A1, “Novel compounds useful for the treatment of degenerative & inflammatory diseases” (priority 2006, published 2008).

What was measured:
[1] = target: T1, purified PDE1A enzyme (Homo sapiens, UniProt P54750); test: In vitro PDE1A primary screening assay (Cisbio cAMP dynamic htrf kit); type: biochemical; settings: 100 nM cAMP; for inhibition at 10 µM: read-out: inhibition of PDE1A (control compounds, primary screening)
Excerpt: For the primary screening, an assay using the cAMP dynamic htrf kit from Cisbio (catnr 62AM2PEB) was used. Its principle is based on HTRF® technology (Homogeneous Time-Resolved Fluorescence). The method is a competitive immunoassay between native cAMP and the cAMP labeled with XL665. The tracer binding is visualized by a monoclonal antibody against cAMP, labeled with Cryptate. The specific signal (i.e. energy transfer) is inversely proportional to the concentration of cAMP in the sample (see FIG. 1).
For the enzymatic reaction a mix of 20 μL is made with purified PDE1A enzyme, 100 nM cAMP and the compound (10 μM in a final concentration of 1% DMSO) in a black 384-plate. The reaction buffer is Tris 20 mM pH 7.4, 4 μg/mL calmodulin, 3 mM MgCl2, 1.5 mM CaCl2, 0.2 mg/mL BSA and 0.001% Brij-35. After an incubation of 30 minutes at room temperature, the reaction is stopped by the addition of 10 μL labelled cAMP-XL665 and 10 μL anti-cAMP-Cryptate. After 1 hour incubation at room temperature, the readout is performed on the Envision (excitation 360 nm; emission donor 615 nm emission acceptor 665 nm).
PDE1A hydrolyses cAMP into 5′AMP; this low cAMP concentration will result in a high signal. A PDE1A inhibitor will result in a decrease of the signal.
As a positive control we used 10 μM Vardenafil (100% inhibition), as negative control is used 1% DMSO (0% inhibition), as variable control 10 μM Zaprinast (+/−50% inhibition) is used and as negative control compound 10 μM Ro-20-1724 (0% inhibition). The positive and negative control were used to calculate z′ and PIN values.
All compounds were screened in single at 10 μM. The hit criterium was set at PIN 50 (50% inhibition).

[2] = target: T1, purified PDE1A enzyme; test: In vitro PDE1A assay, dose response (Biomol Cyclic Nucleotide Phosphodiesterase Assay Kit, colorimetric); type: biochemical; settings: for IC50: 100 μM cAMP, 45 min at 37° C., 8 points from 20 μM, duplicate
How it was run: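 Purified PDE1A with 100 μM cAMP and 5′-nucleotidase, incubated 45 min at 37° C in Tris 20 mM pH 7.4 with calmodulin, MgCl2 and CaCl2; released phosphate read by malachite-green absorbance at 615 nm. Duplicate 8-point ⅓ dilutions from 20 μM in 1% DMSO; 10 μM vardenafil defines 100% inhibition.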

Row | SMILES | IC50 [2] | further results
1 | CCCOc1ccccc1-c1nc2nn[nH]c2c(=O)[nH]1 [Zaprinast] | – | inhibition at 10 µM [1]: ~50%
2 | CCCc1nc(C)c2c(=O)[nH]c(-c3cc(S(=O)(=O)N4CCN(CC)CC4)ccc3OCC)nn12 [Vardenafil, reference compound] | – | inhibition at 10 µM [1]: 100%; inhibition at 10 µM ([2]; 10 μM, read-out: inhibition of PDE1A (positive control, dose response assay)): 100%
3 | CCCCOc1cc(CC2CNC(=O)N2)ccc1OC (stereo not drawn) [Ro-20-1724] | – | inhibition of PDE1A (control compounds, primary screening) ([1]; 10 μM): 0%
4 | CCC(C)CN(Cc1cccc(N2CCOCC2)c1)c1nc2c(C(C)(C)C)nn(C)c2c(=O)[nH]1 (stereo not drawn) [Example 117, 3-tert-butyl-1-methyl-5-((2-methylbutyl)(3-morpholinobenzyl)amino)-1H-pyrazolo[4,3-d]pyrimidin-7(6H)-one] | < 100 nM | –
5 | Cn1nc(C2CCCC2)c2nc(N3CCCC3c3ccccc3)[nH]c(=O)c21 (stereo not drawn) [Example 86, 3-cyclopentyl-1-methyl-5-(2-phenylpyrrolidin-1-yl)-1H-pyrazolo[4,3-d]pyrimidin-7(6H)-one] | < 100 nM | –
6 | CCCc1nn(C)c2c(=O)[nH]c(N(C)Cc3cc(C)n(C)n3)nc12 [Example 14, 5-(((1,5-dimethyl-1H-pyrazol-3-yl)methyl)(methyl)amino)-1-methyl-3-propyl-1H-pyrazolo[4,3-d]pyrimidin-7(6H)-one] | 101 to 500 nM | –
7 | CCC(C)CN(Cc1cccc(-n2cncn2)c1)c1nc2c(C(C)(C)C)nn(C)c2c(=O)[nH]1 (stereo not drawn) [Example 118] | < 100 nM | –
8 | CC(C)CN(Cc1cccc(-n2cncn2)c1)c1nc2c(C(C)(C)C)nn(C)c2c(=O)[nH]1 [Example 95] | < 100 nM | –
9 | CC(C)CN(Cc1ccc(F)cc1)c1nc2c(C(C)(C)C)nn(C)c2c(=O)[nH]1 [Example 97, 3-tert-butyl-5-((4-fluorobenzyl)(isobutyl)amino)-1-methyl-1H-pyrazolo[4,3-d]pyrimidin-7(6H)-one] | < 100 nM | –
10 | CCCc1nn(C)c2c(=O)[nH]c(N(Cc3ccccc3)C(C)C)nc12 [Example 28, 5-(benzyl(isopropyl)amino)-1-methyl-3-propyl-1H-pyrazolo[4,3-d]pyrimidin-7(6H)-one] | 101 to 500 nM | –
11 | CCCc1nn(C)c2c(=O)[nH]c(N3CCC(C(F)(F)F)CC3)nc12 [Example 60, 1-methyl-3-propyl-5-(4-(trifluoromethyl)piperidin-1-yl)-1H-pyrazolo[4,3-d]pyrimidin-7(6H)-one] | > 500 nM | –
12 | CN1CCN(c2cccc(CNc3nc4c(C(C)(C)C)nn(C)c4c(=O)[nH]3)c2)CC1 [Example 92, 3-tert-butyl-1-methyl-5-(3-(4-methylpiperazin-1-yl)benzylamino)-1H-pyrazolo[4,3-d]pyrimidin-7(6H)-one] | < 100 nM | –
13 | CCCc1nn(C)c2c(=O)[nH]c(N(C)Cc3ccc(Cl)cc3)nc12 [Example 17, 5-((4-chlorobenzyl)(methyl)amino)-1-methyl-3-propyl-1H-pyrazolo[4,3-d]pyrimidin-7(6H)-one] | < 100 nM | –
14 | CCCc1nn(C)c2c(=O)[nH]c(NCc3nn(-c4ccccc4)nc3C)nc12 [Example 52, 1-methyl-5-((5-methyl-2-phenyl-2H-1,2,3-triazol-4-yl)methylamino)-3-propyl-1H-pyrazolo[4,3-d]pyrimidin-7(6H)-one] | < 100 nM | –
15 | CCCc1nn(C)c2c(=O)[nH]c(NCc3ccc(Cl)c(Cl)c3)nc12 [Example 32, 5-(3,4-dichlorobenzylamino)-1-methyl-3-propyl-1H-pyrazolo[4,3-d]pyrimidin-7(6H)-one] | 101 to 500 nM | –
16 | CCCc1nn(C)c2c(=O)[nH]c(NCc3ccc(CN4CCOCC4)cc3)nc12 [Example 27, 1-methyl-5-(4-(morpholinomethyl)benzylamino)-3-propyl-1H-pyrazolo[4,3-d]pyrimidin-7(6H)-one] | 101 to 500 nM | –
17 | CCn1nc(C(C)(C)C)c2nc(N(Cc3cccc(N4CCOCC4)c3)CC(C)C)[nH]c(=O)c21 [Example 124, 3-tert-butyl-1-ethyl-5-(isobutyl(3-morpholinobenzyl)amino)-1H-pyrazolo[4,3-d]pyrimidin-7(6H)-one] | > 500 nM | –
18 | CCCc1nn(C)c2c(=O)[nH]c(NCc3c(-c4ccccc4)noc3C)nc12 [Example 51, 1-methyl-5-((5-methyl-3-phenylisoxazol-4-yl)methylamino)-3-propyl-1H-pyrazolo[4,3-d]pyrimidin-7(6H)-one] | 101 to 500 nM | –
19 | CCCc1nn(C)c2c(=O)[nH]c(N(CCC(C)(C)C)Cc3cccc(N4CCOCC4)c3)nc12 [Example 108, 5-((3,3-dimethylbutyl)(3-morpholinobenzyl)amino)-1-methyl-3-propyl-1H-pyrazolo[4,3-d]pyrimidin-7(6H)-one] | < 100 nM | –
20 | CCCc1nn(C)c2c(=O)[nH]c(NCCc3ccc(OCC)c(OCC)c3)nc12 [Example 82, 5-(3,4-diethoxyphenethylamino)-1-methyl-3-propyl-1H-pyrazolo[4,3-d]pyrimidin-7(6H)-one] | > 500 nM | –
21 | CCCc1nn(C)c2c(=O)[nH]c(N3CCCN(Cc4c(F)cccc4Cl)CC3)nc12 [Example 1, 5-(4-(2-chloro-6-fluorobenzyl)-1,4-diazepan-1-yl)-1-methyl-3-propyl-1H-pyrazolo[4,3-d]pyrimidin-7(6H)-one] | > 500 nM | –
22 | CCCc1nn(C)c2c(=O)[nH]c(N(Cc3cccc(-n4cccn4)c3)CC(C)C)nc12 [Example 94] | < 100 nM | –
23 | CC(C)CN(Cc1cccc(-n2cccc2)c1)c1nc2c(C(C)(C)C)nn(C)c2c(=O)[nH]1 [Example 100] | < 100 nM | –
24 | CCCc1nn(C)c2c(=O)[nH]c(NCc3ccc4c(ccn4C)c3)nc12 [Example 68, 1-methyl-5-((1-methyl-1H-indol-5-yl)methylamino)-3-propyl-1H-pyrazolo[4,3-d]pyrimidin-7(6H)-one] | 101 to 500 nM | –
25 | CCCc1nn(C)c2c(=O)[nH]c(NCc3ccc(F)cc3)nc12 [Example 23, 5-(4-fluorobenzylamino)-1-methyl-3-propyl-1H-pyrazolo[4,3-d]pyrimidin-7(6H)-one] | > 500 nM | –
26 | CCCc1nn(C)c2c(=O)[nH]c(NCc3cccc(F)c3)nc12 [Example 18, 5-(3-fluorobenzylamino)-1-methyl-3-propyl-1H-pyrazolo[4,3-d]pyrimidin-7(6H)-one] | > 500 nM | –
